This is an account of results in ChEMBL document CHEMBL2311379, “Design and synthesis of 2-(3-alkylaminophenyl)-6-(pyrrolidin-1-yl)quinolin-4-ones as potent antitumor agents” (Bioorg Med Chem Lett, 2013).

Calls of active or inactive are those of the source. The rule behind the calls is not given here.

The test system of series [1] is Mus musculus. Put plainly: Toxicity in human Hep3B cells xenografted nude mouse assessed as mouse body weight changes at 20 mg/kg, ip qd administered for 5 days per week for 4 consecutive weeks. To be noted: in vivo, 120 h. The format is organism-based, Hep 3B2. Details: dose 20 mg/kg, route intraperitoneal. In general terms: In xenograft studies the graft and the host belong to different species.

Series [2] can be described thus: Cytotoxicity against human Hep3B cells. The format is functional, cell-based, Hep 3B2.
Series [3] in a line: Antitumor activity against human Hep3B cells xenografted in nude mouse assessed as inhibition of tumor growth at 20 mg/kg, ip qd administered for 5 days per week for 4 consecutive weeks. The format is functional, Hep 3B2. The note with it: 120 h, route intraperitoneal, read-out: TGI.
Series [4] relates to HL-60. As to the kind of experiment: Cytotoxicity against human HL60 cells. The format is functional, cell-based.
The test system of series [5] is Mus musculus. As to the kind of experiment: Toxicity in human Hep3B cells xenografted nude mouse assessed as mouse body weight changes at 10 mg/kg, ip qd administered for 5 days per week for 4 consecutive weeks. The format is organism-based, Hep 3B2. Details: dose 10 mg/kg, route intraperitoneal. The note with it: in vivo, 120 h.
The nature of series [6]: Cytotoxicity against human H460 cells. To be noted: NCI-H460. The format is functional, cell-based.
In series [7] the test system is Hep 3B2. Put plainly: Antitumor activity against human Hep3B cells xenografted in nude mouse assessed as inhibition of tumor growth at 10 mg/kg, ip qd administered for 5 days per week for 4 consecutive weeks. The format is functional, organism-based. On the set-up: dose 10 mg/kg.
Series [8] has as its system Detroit 551. Put plainly: Cytotoxicity against human Detroit 551 cells. The format is cell-based.
A short description of series [9]: Cytotoxicity against human NCI60 cells. The format is functional.

In general, IC50 refers to the concentration that inhibits the measured activity by half. Read a high IC50 as a need for much substance. The term GI50 denotes the concentration at which growth is held to half of that of the control. A low value points to more potent growth inhibition.

Turning to `CNc1cccc(-c2cc(=O)c3cc(N4CCCC4)ccc3[nH]2)c1`, the Activity result in [1] and in series [5] was “Non-toxic” each time. Moreover, the IC50 in series [2] is 21 nM; in [4], 6 nM; in series [6], 35 nM; in series [8] it was above 10000 nM. Moreover, the inhibition in vivo at 20 mg/kg in [3] amounted to 70%. The TGI result in [7] is “Active”.
For `CCNc1cccc(-c2cc(=O)c3cc(N4CCCC4)ccc3[nH]2)c1`, the IC50 was 20 nM in series [2], 5 nM in series [4], 20 nM in series [6] and above 10000 nM in series [8].
Consider `CN(C)c1cccc(-c2cc(=O)c3cc(N4CCCC4)ccc3[nH]2)c1`, for which the IC50 was 15 nM in series [2], 5 nM in series [4], 13 nM in series [6] and above 1000 nM in series [8].
With `COc1cccc(-c2cc(O)c3cc(N4CCCC4)ccc3n2)c1`, growth in series [9] was halved (GI50) at 1.91 nM.
